Target: T1, Hydroxyproline dehydrogenase (Homo sapiens, UniProt Q9UF12)
T1 sequence (Q9UF12 whole entry): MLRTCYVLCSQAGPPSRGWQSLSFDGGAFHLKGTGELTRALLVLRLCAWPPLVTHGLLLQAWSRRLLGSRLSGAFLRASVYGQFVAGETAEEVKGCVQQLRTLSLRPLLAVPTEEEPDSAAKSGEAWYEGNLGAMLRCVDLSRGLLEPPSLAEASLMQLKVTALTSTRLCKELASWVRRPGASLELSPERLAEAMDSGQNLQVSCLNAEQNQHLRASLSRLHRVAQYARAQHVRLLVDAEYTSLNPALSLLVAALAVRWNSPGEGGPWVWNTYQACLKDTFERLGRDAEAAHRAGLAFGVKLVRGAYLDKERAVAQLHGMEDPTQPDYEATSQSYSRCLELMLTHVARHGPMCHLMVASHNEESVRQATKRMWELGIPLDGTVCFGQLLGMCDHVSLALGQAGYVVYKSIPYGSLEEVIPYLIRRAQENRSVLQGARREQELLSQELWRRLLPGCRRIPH
Test: Inhibition of human recombinant HYPDH expressed in Escherichia coli using hydroxyproline as substrate preincubated for 5 mins followed by substrate addition in presence of FAD as cofactor

IC50: Nd(Insoluble)
SMILES: O=C(O)c1ccco1
